What was measured:
[1] = Radical scavenging by the DPPH (diphenylpicryl-hydrazyl) method; conditions: 10 mg dose
[2] = Transdermal diffusion of Vitamin C / reductones across guinea pig abdominal skin in a diffusion cell; assay type: in vitro ADME; conditions: for Reductones transported across the guinea pig membrane: 3 hours, 37° C., phosphate buffer pH 7; for Fraction trans-dermal percent: 10 mg applied, after 3 hours, relative to reductone equivalent present in application
Procedure: The diffusion studies were carried out across the guinea pig abdominal skin. […] The guinea pig abdominal skin was placed between the upper and lower chambers of the diffusion cell, thereby separating the 2 chambers. The test composition was introduced into the upper chamber. Migration of the components from the upper chamber to the lower chamber (which had liquid or buffer at body pH) through the guinea pig abdominal skin allowed comparative studies for extent of migration of the components from different test compositions.
After introducing the test material in the upper chamber, the diffusion was carried out for 3 hours.
The lower chamber of the diffusion cells were filled with 15 ml of phosphate buffer, pH 7, and the prepared guinea pig skins were fixed on each diffusion cell between the upper and lower chambers of the diffusion cell. The temperature of the diffusion cell was maintained at 37° C.
The diffusion across the skin membrane of active ingredients, that is, scorbutic reductones (that is Vitamin C actives substances including ascorbic acid) and hydrogen ions was carried out for three hours.
To an aliquot (5 ml) of supernatant of the HPO3 extract 2.5 ml of acetone was added and the resulting solution was titrated with dye 2,6-dichloro indophenol until a faint pink color persisted for 15 seconds. The concentration of Vitamin C in the sample was expressed as mg ascorbic acid equivalent to 1 ml of the dye solution.

In the case of `O=C1O[C@H]([C@@H](O)CO)C(O)=C1O` [ascorbic acid], the “inhibition (DPPH radical scavenging)” value [1] is reported as −4.66%, the “Reductones transported across the guinea pig membrane” value ([2]; 10 mg applied on guinea pig membrane) is reported as 0.3 mg and the Fraction trans-dermal percent [2] is reported as 3.0%. For the same compound, the Fraction trans-dermal percent ([2]; listed as Vitamin C) was 3% and the “Reductones transported across the guinea pig membrane” value ([2]; 100 mg applied on guinea pig membrane) was 8.4 mg.
